These are literature values, as cited in patent US20220047724A1, “NOVEL TRICARBOCYANINE-CYCLODEXTRIN(S) CONJUGATES AND USE THEREOF” (CYANAGEN S.R.L., priority 2014, published 2022).

Like-named read-outs stand apart in the source and are kept apart here.

The conditions of series [1]: Sigma-Aldrich Product No. H-107, vendor data.
Series [2] has as its system mice.
The subject of series [3] is rabbits.

For the substance 2-hydroxypropyl-β-cyclodextrin [HβCD], the Water solubility in series [1] is 45 g/100 mL. In addition, the Toxicity entry in series [2] (mouse, in vivo) is reported as “non-toxic”; in series [3] (rabbit, in vivo), “non-toxic”.
With 2-hydroxypropyl-γ-cyclodextrin [HγCD], the Toxicity entry in series [2] (mice) and in series [3] (rabbits) was “non-toxic” each time.
